SMILES strings stand for the structures. Values joined by “and” are separate entries in the source; they are usually repeats but may differ in a detail not shown here. Equal values may be shown once.

Sodium-dependent dopamine transporter, sequence (P23977 whole entry): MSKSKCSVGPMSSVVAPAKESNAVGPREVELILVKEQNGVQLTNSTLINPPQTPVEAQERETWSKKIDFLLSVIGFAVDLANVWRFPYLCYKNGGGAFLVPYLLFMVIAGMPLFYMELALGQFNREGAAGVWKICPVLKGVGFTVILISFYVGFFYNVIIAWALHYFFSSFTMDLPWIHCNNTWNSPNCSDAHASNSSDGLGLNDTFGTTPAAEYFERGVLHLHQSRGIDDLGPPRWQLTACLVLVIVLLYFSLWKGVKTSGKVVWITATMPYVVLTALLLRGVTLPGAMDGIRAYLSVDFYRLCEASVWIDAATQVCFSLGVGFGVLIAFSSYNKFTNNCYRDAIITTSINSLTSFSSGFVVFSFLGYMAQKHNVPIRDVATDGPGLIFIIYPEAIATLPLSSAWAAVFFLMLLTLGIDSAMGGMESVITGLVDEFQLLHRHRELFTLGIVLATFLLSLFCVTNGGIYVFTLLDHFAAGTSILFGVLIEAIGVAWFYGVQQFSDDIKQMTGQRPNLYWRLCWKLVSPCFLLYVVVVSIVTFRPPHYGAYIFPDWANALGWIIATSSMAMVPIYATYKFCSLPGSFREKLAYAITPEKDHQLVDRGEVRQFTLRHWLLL

This assay has as its target Sodium-dependent dopamine transporter (Rattus norvegicus, UniProt P23977).
The Ki is the equilibrium dissociation constant of an inhibitor or competing ligand from its target. Read a low Ki as tighter binding. In the case of `CC1CN(CCCn2c3ccccc3c3ccccc32)CC(C)N1` (stereo unspecified) [9-[3-(3,5-dimethylpiperazin-1-yl)propyl]-9H-carbazole], the Ki is 0.643 µM and 0.18 µM.
With `COC(=O)C1C2CCC(C[C@@H]1OC(=O)c1ccccc1)O2` (stereo partly specified) [8-Oxa-norcocaine], the inhibition constant Ki was 9.78 µM and 1.56 µM.
As for `CN1C2CCC1CC(OC(c1ccccc1)c1ccc(C(F)(F)F)cc1)C2` (stereo unspecified) [8-Methyl-3-[phenyl-(4-trifluoromethyl-phenyl)-methoxy]-8-aza-bicyclo[3.2.1]octane], the Ki is 1.28 µM and 0.541 µM.
`O=CN1C2CCC1CC(OC(c1ccc(F)cc1)c1ccc(F)cc1)C2` (stereo unspecified) [N-CHO-4,4'-diFBZT] yielded a Ki greater than 10 µM.
On to `O[C@]1(c2ccc(Cl)cc2)c2ccccc2C2=NCCN21` [Mazanor], for which the Ki was 0.031 µM and 0.013 µM.
Turning to `COC(=O)[C@@H]1CN(C)CC[C@@H]1c1ccc(Cl)cc1` [4-ARA-127], the inhibition constant Ki was 1.63 µM and 3.3 µM.

The values are drawn from BindingDB's records for doi:10.1124/jpet.105.085829 (Duquesne University, 2005).
